“Also recorded” adds a separate entry of the source.
Columns and labels:
α1β2γ2 GABAA receptors = biological target: T1, α1β2γ2 GABAA receptors (Rattus norvegicus, UniProt P18508+P62813); experiment: Stimulation of currents elicited by GABA (EC3-5), two-electrode voltage clamp, receptors expressed in Xenopus oocytes; format: cell-based
T1 construct: expressed in transfected cells; host or cells: Xenopus laevis oocytes, cRNA microinjection
Excerpt: 7-Chloro-3-(5-dimethylaminomethyl-[1,2,4]oxadiazol-3-yl)-5-methyl-4,5-dihydro-imidazol[1,5,-a][1,4]benzodiazepine-6-one was used to test the effects of the compound of formula (II): […]
Similar procedures were chosen as for the investigation of other GABAA receptor subunit specific substances (e.g., Baur et al., 2005; Mol. Pharmacol. 68, 787-792).
Lobes of the ovary containing the follicles were obtained by surgical procedures from female Xenopus laevis. Follicles were singled out using a platinum loop. Fifty nL of cRNA solution at a ratio of αx:β2:γ2 of 1:1:5 (3.3-10 nM αx (x=1, 2, 3, 5); 3.3-10 nM β2; 16.7-50 nM γ2) (Boileau et al., 2002; Neuropharmacology 43, 695-700) were microinjected into Xenopus follicles. Several hours after microinjection the follicles were freed of follicular layers and adhering connective tissue by a collagenase/hypertonic shock procedure (Sigel, 1987; J. Physiol. (Land) 386, 73-90). Oocytes were kept at constant 18° C. until measurement (1-4 days) in a modified Barth solution (88 mM NaCl, 1 mM KCl, 2.4 mM NaHCO3, 10 mM Hepes-NaOH (pH 7.5), 0.82 mM MgSO4×7H2O, 0.34 mM Ca(NO3)2×4H2O, 0.41 mM CaCl2×2H2O, 100 U Penicillin/mL, 100 μg Streptomycin/mL, sterile filtered).
Currents were measured using a home-built amplifier in combination with a xy-recorder or were digitized using a MacLab/200 (AD Instruments) and stored on a computer. Xenopus oocytes were voltage clamped using the two-electrode voltage clamp technique (electrode resistance about 0.8 MΩ) at −80 mV. The medium contained 90 mM NaCl, 1 mM KCl, 1 mM MgCl2, 1 mM CaCl2, 10 mM Na-Hepes (pH 7.4) and 0.5% DMSO.
GABA was applied for 20-50 seconds without or in combination with other drugs and a washout period of 4 minutes was allowed to ensure full recovery from desensitization, which was experimentally determined. The perfusion solution (6 mL/min) was applied through a glass capillary with an inner diameter of 1.35 mm, the mouth of which was placed about 0.4 mm from the surface of the oocyte. The rate of solution change under our conditions has been estimated 70% within less than 0.5 s (Sigel et al., 1990; Neuron 5, 703-711). The entire perfusion system and the assay chamber were cleaned between drug applications by washing with DMSO.
Data is given as mean±SD, except in the figures where data is shown for clarity as mean±SEM. Current stimulation was calculated as follows: stimulation (%)=((I(GABA+modulator)−I(GABA))/I(GABA))×100%, where I is the current amplitude. Where indicated, the stimulation was standardized to the stimulation by 1 μM diazepam (100%). To obtain FIGS. 1-4, values for current stimulation obtained at a given concentration of modulator at a given subunit combination were averaged. The data points were fitted with the equation stimulation=efficacy/(1+(potency/concentration of modulator)). The values given in the Tables (Summary) are obtained by fitting individual curves and subsequently averaging efficacy and potency. […]
GABA was then applied in combination with various concentrations of the compound of formula (II) between 0.3 nM and 3,000 nM to produce a cumulative concentration response curve. […] In each batch of oocytes the stimulation by 1 μM diazepam was determined in five oocytes, extent of stimulation averaged and defined as 100%. Where indicated, stimulation by the compound of formula (II) in each batch of oocytes was expressed as a percentage of this value in the corresponding batch. […]

[1] = Example 2: single and repeat dose pharmacokinetic, safety and pharmacodynamic study; format: in vivo, human; conditions: healthy volunteers, oral
Method: A single and repeat dose pharmacokinetic safety and pharmacodynamic study of the effects of the compound of formula (II) was conducted using healthy volunteers. The compound of formula (II) in free base form was administered orally in 1 mg, 1.5 mg, 2 mg and 2.5 mg doses via a hard gelatine capsule containing the compound in powder form.

[2] = Pharmacokinetic profile in non-elderly adults and the elderly (FIG. 16); format: in vivo, human; conditions: free base
Excerpt: FIG. 16 is a chart showing an exemplary pharmacokinetic (PK) profile of the compound of formula (II) (free base) in both the non-elderly adults and the elderly. Mean dose adjusted plasma concentrations of the compound of formula (II) (free base) in non-elderly (open circle) and elderly males (open square) and M1 (active metabolite of the compound of formula (II) (free base)) in non-elderly adults (filled circle) and the elderly (filled square).
As a result, the inventors determined that the same or similar doses of the compound of formula (II), which are effective for non-elderly adults (18-64 years of age), could be effective for the elderly.

T1 sequence (P62813 28-455): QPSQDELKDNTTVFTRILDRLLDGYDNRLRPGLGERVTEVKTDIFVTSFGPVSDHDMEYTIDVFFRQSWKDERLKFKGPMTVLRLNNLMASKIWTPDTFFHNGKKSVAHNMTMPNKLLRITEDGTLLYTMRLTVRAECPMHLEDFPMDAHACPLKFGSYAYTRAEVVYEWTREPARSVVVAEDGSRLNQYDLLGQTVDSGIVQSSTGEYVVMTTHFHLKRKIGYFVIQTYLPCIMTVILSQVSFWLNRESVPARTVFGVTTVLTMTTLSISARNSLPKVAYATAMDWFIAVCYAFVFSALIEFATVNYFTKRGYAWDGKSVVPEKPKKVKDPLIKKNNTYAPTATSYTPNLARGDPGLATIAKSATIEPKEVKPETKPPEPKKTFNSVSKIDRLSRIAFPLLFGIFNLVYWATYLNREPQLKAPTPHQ
T1 sequence (P63138 25-474 partner limits assumed): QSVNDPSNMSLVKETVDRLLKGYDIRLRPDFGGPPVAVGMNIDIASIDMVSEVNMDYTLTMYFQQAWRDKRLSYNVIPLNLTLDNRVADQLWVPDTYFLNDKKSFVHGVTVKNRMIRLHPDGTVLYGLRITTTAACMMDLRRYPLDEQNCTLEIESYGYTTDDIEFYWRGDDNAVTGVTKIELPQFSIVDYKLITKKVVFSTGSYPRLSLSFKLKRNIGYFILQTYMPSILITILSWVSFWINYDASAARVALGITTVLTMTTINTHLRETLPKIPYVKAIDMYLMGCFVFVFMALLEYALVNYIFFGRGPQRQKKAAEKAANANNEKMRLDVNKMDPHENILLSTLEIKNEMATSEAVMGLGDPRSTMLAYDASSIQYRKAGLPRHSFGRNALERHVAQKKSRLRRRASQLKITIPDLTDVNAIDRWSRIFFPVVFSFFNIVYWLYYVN
T1 sequence (P18508 39-466): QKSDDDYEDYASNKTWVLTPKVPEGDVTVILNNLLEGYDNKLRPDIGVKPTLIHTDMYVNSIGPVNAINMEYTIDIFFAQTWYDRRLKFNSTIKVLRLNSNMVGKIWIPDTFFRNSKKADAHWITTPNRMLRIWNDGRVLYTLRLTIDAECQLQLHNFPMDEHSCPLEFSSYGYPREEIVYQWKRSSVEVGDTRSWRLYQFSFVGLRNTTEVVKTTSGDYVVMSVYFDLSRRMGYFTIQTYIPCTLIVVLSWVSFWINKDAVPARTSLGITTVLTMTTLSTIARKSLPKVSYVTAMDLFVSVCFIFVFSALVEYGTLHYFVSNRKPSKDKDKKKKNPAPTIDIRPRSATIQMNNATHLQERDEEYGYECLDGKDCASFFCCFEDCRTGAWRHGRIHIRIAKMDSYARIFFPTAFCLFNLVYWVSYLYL

For CN(C)Cc1nc(-c2ncn3c2CN(C)C(=O)c2c(Cl)cccc2-3)no1 [compound of formula (II), 7-chloro-3-(5-dimethylaminomethyl-[1,2,4]oxadiazol-3-yl)-5-methyl-4,5-dihydro-imidazo[1,5-a][1,4]benzodiazepine-6-one], the “Intrinsic activity / type of allosteric modulation” value (α1β2γ2 GABAA receptors; GABAA receptor benzodiazepine site) was “partial agonist; also recorded: partial positive allosteric modulator”, the “Receptor subtype preference in comparison to α5β2γ2, α3β2γ2 and α2β2γ2” value (α1β2γ2 GABAA receptors; concentrations <100 nM) was “preference for α1β2γ2 GABAA receptors” and the “effect of food on the extent of absorption” value [1] was “little or no effect”. The “pharmacokinetic profile on day 14 after repeat dosing compared to day 1” value [1] was “no significant differences” and the “pharmacokinetic (PK) profile in non-elderly versus elderly” value [2] was “similar”.
